Assay results reported in patent US5840697A, “Peptide inhibitors of calmodulin” (Torrey Pines Institute for Molecular Studies, priority 1996, dated 1998).
Where two headings read alike, the source gives them in different places. Square brackets hold non-standard residues; d marks the D form. Peptide text beside a SMILES is read from it.

Tests used:
[1] = molecular target: calmodulin (Homo sapiens, UniProt P0DP23); assay: calcium-dependent phosphodiesterase assay (calmodulin activity); assay type: biochemical; details: for SPECIFICITY: comparison of IC50 for phosphodiesterase with IC50 for calmodulin; for calmodulin inhibitory activity, in words: (L)-amino acid peptides of Table II
Experimental: In the calcium dependent phosphodiesterase assay, calmodulin can be assayed by its ability to stimulate phosphodiesterase activity as determined by a two-step assay procedure illustrated by reactions (1) and (2) below. [drawing 1]
During the first step of the assay cyclic adenosine 3'5'-monophosphate (cAMP) is incubated with calcium-activated phosphodiesterase (Cal-PDE), which hydrolyses the 3'bond producing adenosine 5'-monophosphate (5'-AMP). During the second step, 5'-AMP is quantitatively converted into adenosine and inorganic phosphate (Pi) through the action of a 5-nucleotidase. The reaction is followed by the measurement of the Pi formed by reading the absorbance at 660 nm after reacting with ammonium molybdate. The amount of Pi formed is directly related to the phosphodiesterase activity which depends on the level of activation by calmodulin.
To sample assay tubes were added the following components: assay buffer, 25 ul; CaCl2, 5 ul; 5'-nucleotidase, 7.5 ul (stock solution is 10 units/ml); calmodulin 5 units; calmodulin inhibitor peptides to obtain the desired final concentration of 50 μM. The volume was then made up to 200 ul with water. Control blanks were prepared replacing the peptides with water. The added components were thoroughly mixed and the tubes incubated at 30° C. for 10 min. […] The samples were centrifuged to remove the protein precipitate and the 50 ul of the supernatant was withdrawn for phosphate measurement. […] The absorbance of the solution were read at 660 nm using water as a blank, identified as control "Calmo."
The two controls used in the assay, one without and one with calmodulin, as indicated in FIG. 1 and Table I were as follows,: (1) PDE:
These three controls were used in the calcium-dependent phosphodiesterase assay for reproducibility of the assay.
In addition to the calcium-dependent phosphodiesterase assay data, IC50 values were determined for many of the peptides. The assay carried out for the determination in the IC50 values differed from the above screening assay by the concentration of the peptides being tested.
(3) TFP: trifluoperazine; and (4) Calmidasolium: (1-[bis-(4-chlorophenyl)methyl]-3[-2-(2,4-dichlorophenyl)-2[(2,4-dichlorophenyl)methoxy]-ethyl]-1H-imidazolium chloride. The IC50 values were calculated using sigmoidal curve software (Graphpad, ISI; San Diego, Calif.) using the % inhibition at different mixture concentrations (see protocol for determination of % inhibition).
The (L)-amino acid counterpart for five (5) of the all (D)-amino acid peptides identified from the PS-SCL were synthesized in order to study the stereoselectivity of the inhibition.

[2] = molecular target: phosphodiesterase; assay: calcium-dependent phosphodiesterase assay in the absence of calmodulin; assay type: biochemical; details: Table III
Experimental: To sample assay tubes were added the following components: assay buffer, 25 ul; CaCl2, 5 ul; 5'-nucleotidase, 7.5 ul (stock solution is 10 units/ml); calmodulin 5 units; calmodulin inhibitor peptides to obtain the desired final concentration of 50 μM. The volume was then made up to 200 ul with water. Control blanks were prepared replacing the peptides with water. The added components were thoroughly mixed and the tubes incubated at 30° C. for 10 min. Then, 25 ul of cAMP at 10.8 mM was added and incubated for 90 min at 30° C. The reaction was stopped by the addition of 50 ul of 55% trichloroacetic acid (TCA). The samples were centrifuged to remove the protein precipitate and the 50 ul of the supernatant was withdrawn for phosphate measurement. To the supernatant aliquot, 50 ul ammonium molybdate (0.55% in 1.1 N sulfuric acid) was added, followed by the addition of 5 ul of reducing agent (24 g sodium bisulfite, 2.4 g sodium sulfite, 0.5 g of 1-amino-2-naphthol-4-sulfonic acid in 200 ml of water), and the contents were mixed by vortexing. The absorbance of the solution were read at 660 nm using water as a blank, identified as control "Calmo."
As described above, one of the undesirable biological effects of existing calmodulin inhibitors is their non-specific binding to other proteins and the like. Therefore, the specificity of the instant inhibitory peptides for calmodulin was examined. The specificity was determined using the calcium-dependent phosphodiesterase assay described in Example I. The assay was carried out for the determination of IC50 values in the presence of calmodulin (IC50 value for calmodulin) and in the absence of calmodulin (IC50 for phosphodiesterase), the latter of which provides the effect of the inhibitory peptides on the phosphodiesterase.

[3] = test system: rat liver cells; assay: in vivo rat model: DNA synthesis of rat liver cells after partial hepatectomy; details: intravenous injection 5 hours after partial hepatectomy, measured 24 hours post hepatectomy
Description: The effect that calmodulin inhibitors have on DNA synthesis were also studied in vivo in a rat model. Rat liver cells are a useful in vivo system for studying synchronized cells and the cell cycle. By partial hepatectomy, the hepatocyte quiescent cells present in normal adult rat liver can be stimulated to enter the replicative cell cycle and the effect of inhibitors on the cycle analyzed. This example provides the effect of the subject calmodulin inhibitory peptides on the DNA synthesis of rat liver cells in partial hepatectomy stage following intra venal injection of the peptides.
Male Sprague-Dawley rats ([…]; 2 rats per peptide or control) were fasted overnight. Partial hepatectomies were carried out under Ketolar anesthesia (Parke-Davis; Ann Arbor, Mich.), following the procedure described by Higgins and Anderson in Arch. Pathol., 12:186-202 (1931), which is incorporated herein by reference. […] DNA synthesis was assessed by measuring the radioactivity incorporated into DNA following an intraperitoneal injection (0.5 mCi/g body weight) of [^3 H] thymidine 1 hr prior to killing the rat and at 23 hours post hepatectomy. […] The liver tissue was homogenized in 10% trifluoroacetic acid at 4° C. and the DNA extracted and its radioactivity measured following the procedure described by Burton, Biochem. J., 62:315-320 (1956), which is incorporated herein by reference. […]

[4] = test system: normal rat kidney (NRK) cells; assay: DNA synthesis ([3H]-thymidine incorporation) in cell culture; assay type: cell-based; details: added at 5 hr
Experimental: Following the methods described in Lopez-Girona et al., Cell Calcium, 18:30-40 (1995), which is incorporated herein by reference, the effect of calmodulin inhibitory peptides on DNA synthesis was investigated. Specifically, peptides were added to culture media and assessed for their ability to inhibit the progression of normal rat kidney (NRK) cells into the S phase of the cell cycle; the DNA synthesis phase into the cell growth cycle. Such inhibition has been shown for existing anti-calmodulin drugs such as W13.
NRK cells were made quiescent by growing them to confluence in Dulbecco's minimum essential medium supplemented with 5% fetal calf serum (FCS), and then kept for 3-4 days in the same medium but with only 0.5% FCS. To allow them to re-enter the cell cycle, quiescent cells were trypsinized and subcultured at a lower density in fresh medium supplemented with 5% FCS.
DNA synthesis was analyzed by the measurement of [^3 H]-thymidine into whole cell DNA. NRK cells (10^5 per 35 mm plate) were pulse labeled for 1 hr with [methyl-^3 H]-thymidine (5 Ci/mmol) at 4 μCi/ml in Dulbecco's minimum essential medium supplemented with 5% FCS. Precipitation and solubilization of DNA was carried out as described in Cripps-Wolfman et al., J. Biol. Chem., 264:19478-19486 (1989), which is incorporated herein by reference.
The NRK cells stimulated to proliferate by addition of 5% FCS enter synchronously into the cell cycle and start the S phase after 12 hr reaching a maximum between 18 to 20 hr. The peptides were added at 5 hr (time at which the cells have already reenter the G1 phase). […] Similar results were found between the (D)-amino acid peptides and their (L)-counterpart.

[5] = test system: NRK cells; assay: long term stability: number of NRK cells at 48 hr after activation; assay type: cell-based, rat; details: added at 5 hr, counted 48 hr after activation
Description: The similar activity found for the (L)-amino acid peptides and (D)-amino acid peptides indicate that the inhibition of calmodulin occurs rapidly following the addition of the inhibitory peptides. The peptides' long term stability was then studied by adding Ac-(D)Leu-(D)Trp-(D)Arg-(D)Ile-(D)Leu-(D)Trp-NH2, Ac-Leu-Trp-Arg-Ile-Leu-Trp-NH2 (SEQ ID No. 48), W13 and W12 at 5 hr following the reentry of the NRK cells into the cell cycle and measuring the number of cells at 48 hr after activation.

[6] = Table I, assayed at 75, 50 and 12.5 μM, average of repeated assays, read-out: Average IC50
[7] = Table III, in the presence of calmodulin, read-out: IC50 (μM) for calmodulin
[8] = Table II, (L)-amino acid peptides, concentrations 0.2 to 50.0 μM, read-out: IC50

Structure (SMILES)	IC50 [1, 6] [µM]	IC50 [1, 7] [µM]	SPECIFICITY [1]	IC50 [2] [µM]	calmodulin inhibitory activity, in words [1]	IC50 [1, 8] [µM]	number of cells relative to control cells [5]	further results
CC[C@@H](C)[C@@H](NC(=O)[C@@H](CCC(N)=O)NC(=O)[C@@H](CC(C)C)NC(C)=O)C(=O)N[C@H](Cc1c[nH]cn1)C(=O)N[C@H](CC(C)C)C(=O)N[C@H](CCCNC(=N)N)C(N)=O [Ac-(D)Leu-(D)Gln-(D)Ile-(D)His-(D)Leu-(D)Arg-NH2] (Ac-[dL][dQ][dI][dH][dL][dR]-NH2)	70	43	2.4	104	–	–	–	% DNA SYNTHESIS [3]: 100%; % DNA SYNTHESIS ([4]; 7.5 μM): 100%; % DNA SYNTHESIS ([4]; 15 μM): 84%
CC[C@@H](C)[C@@H](NC(=O)[C@@H](Cc1c[nH]c2ccccc12)NC(=O)[C@@H](CC(C)C)NC(C)=O)C(=O)N[C@@H](C(=O)N[C@H](CC(C)C)C(=O)N[C@H](Cc1c[nH]c2ccccc12)C(N)=O)[C@H](C)CC [Ac-(D)Leu-(D)Trp-(D)Ile-(D)Ile-(D)Leu-(D)Trp-NH2] (Ac-[dL][dW][dI][dI][dL][dW]-NH2)	36	29	–	–	–	–	–	IC50 (μM) for phosphodiesterase [2]: activation
CC(=O)N[C@@H](CC(C)C)C(=O)N[C@@H](Cc1c[nH]c2ccccc12)C(=O)N[C@@H](CCCNC(=N)N)C(=O)N[C@@H](Cc1c[nH]cn1)C(=O)N[C@@H](CC(C)C)C(=O)N[C@@H](Cc1c[nH]c2ccccc12)C(N)=O [Ac-Leu-Trp-Arg-His-Leu-Trp-NH2] (Ac-LWRHLW-NH2)	–	1.1	> 182	> 200	especially high activity	1.15	–	–
CC[C@H](C)[C@H](NC(=O)[C@H](CCCNC(=N)N)NC(=O)[C@H](Cc1c[nH]c2ccccc12)NC(=O)[C@H](CC(C)C)NC(C)=O)C(=O)N[C@@H](CC(C)C)C(=O)N[C@@H](CCCNC(=N)N)C(N)=O [Ac-Leu-Trp-Arg-Ile-Leu-Arg-NH2] (Ac-LWRILR-NH2)	–	–	> 69	> 200	especially high activity	2.89	–	–
CC[C@H](C)[C@H](NC(=O)[C@H](CCCNC(=N)N)NC(=O)[C@H](Cc1c[nH]c2ccccc12)NC(=O)[C@H](CC(C)C)NC(C)=O)C(=O)N[C@@H](CC(C)C)C(=O)N[C@@H](Cc1c[nH]c2ccccc12)C(N)=O [Ac-Leu-Trp-Arg-Ile-Leu-Trp-NH2] (Ac-LWRILW-NH2)	–	–	> 227	> 200	especially high activity	0.88	the same number of cells	–
NCCCCNS(=O)(=O)c1ccc2ccccc2c1 [Peptide W12, reference compound]	–	–	–	–	–	–	the same number of cells	% DNA SYNTHESIS ([4]; 30 μM): 100%

Second part, led by results:

IC50 [1, 6] [µM]	IC50 [1, 7] [µM]	SPECIFICITY [1]	IC50 [2] [µM]	calmodulin inhibitory activity, in words [1]	IC50 [1, 8] [µM]	Structure (SMILES)	number of cells relative to control cells [5]	further results
3.9	4.8	> 42	> 200	–	–	CC[C@@H](C)[C@@H](NC(=O)[C@@H](CCCNC(=N)N)NC(=O)[C@@H](Cc1c[nH]c2ccccc12)NC(=O)[C@@H](CC(C)C)NC(C)=O)C(=O)N[C@H](CC(C)C)C(=O)N[C@H](CCCNC(=N)N)C(N)=O [Ac-(D)Leu-(D)Trp-(D)Arg-(D)Ile-(D)Leu-(D)Arg-NH2] (Ac-[dL][dW][dR][dI][dL][dR]-NH2)	–	–
8.5	12	2.4	30	–	–	CC[C@@H](C)[C@@H](NC(=O)[C@@H](Cc1c[nH]c2ccccc12)NC(=O)[C@@H](CC(C)C)NC(C)=O)C(=O)N[C@H](Cc1c[nH]cn1)C(=O)N[C@H](Cc1c[nH]cn1)C(=O)N[C@H](Cc1c[nH]c2ccccc12)C(N)=O [Ac-(D)Leu-(D)Trp-(D)Ile-(D)His-(D)His-(D)Trp-NH2] (Ac-[dL][dW][dI][dH][dH][dW]-NH2)	–	–
3.6	–	12	42	–	–	CC[C@@H](C)[C@@H](NC(=O)[C@@H](Cc1c[nH]c2ccccc12)NC(=O)[C@@H](CC(C)C)NC(C)=O)C(=O)N[C@H](Cc1c[nH]cn1)C(=O)N[C@H](CC(C)C)C(=O)N[C@H](Cc1c[nH]c2ccccc12)C(N)=O [Ac-(D)Leu-(D)Trp-(D)Ile-(D)His-(D)Leu-(D)Trp-NH2] (Ac-[dL][dW][dI][dH][dL][dW]-NH2)	–	–
93	–	–	–	–	–	NCCCCNS(=O)(=O)c1ccc2c(Cl)cccc2c1 [Peptide W13, N-(4-aminobutyl)-5-chloro-2-naphtalenesulfonamide, reference compound]	significantly lower number of cells	% DNA SYNTHESIS ([4]; 30 μM): 60%
